Results: US20260055096A1, “AZOLE PESTICIDAL COMPOUNDS” (BASF SE, priority 2022, published 2026)

Key:
Assay type in all cases: in vivo
[1] = system: yellow fever mosquito (Aedes aegypti); test: whole plant or invertebrate; conditions: 48 h, larval mortality after 2 days, read-out: mortality in comparison with untreated controls
Protocol: For evaluating control of yellow fever mosquito (Aedes aegypti) the test unit consisted of 96-well-microtiter plates containing 200 μl of tap water per well and 5-15 freshly hatched A. aegypti larvae.
The active compounds or mixtures were formulated using a solution containing 75% (v/v) water and 25% (v/v) DMSO. Different concentrations of formulated compounds or mixtures were sprayed onto the insect diet at 2.5 μl, using a custom-built micro atomizer, at two replications.
For experimental mixtures in these tests identical volumes of both mixing partners at the desired concentrations respectively, were mixed together.
After application, microtiter plates were incubated at 28 #1° C., 80 #5% RH for 2 days. Larval mortality was then visually assessed.

[2] = system: boll weevil (Anthonomus grandis); test: Example B.3: Action on boll weevil (Anthonomus grandis), egg and larval mortality on insect diet; conditions: 120 h, egg and larval mortality after 5 days, read-out: mortality in comparison with untreated controls
Protocol: For evaluating control of boll weevil (Anthonomus grandis) the test unit consisted of 96-well-microtiter plates containing an insect diet and 5-10 A. grandis eggs.
The compounds were formulated using a solution containing 75% (v/v) water and 25% (v/v) DMSO. Different concentrations of formulated compounds were sprayed onto the insect diet at […], using a custom-built micro atomizer, at two replications.
After application, microtiter plates were incubated at about 25±1C and about 75±5% relative humidity for 5 days. Egg and larval mortality were then visually assessed.

[3] = system: tobacco budworm (Heliothis virescens); test: Example B.5: Action on tobacco budworm (Heliothis virescens), egg and larval mortality on insect diet; conditions: 120 h, egg and larval mortality after 5 days, read-out: mortality in comparison with untreated controls
Protocol: For evaluating control of tobacco budworm (Heliothis virescens) the test unit consisted of 96-well-microtiter plates containing an insect diet and 15-25 H. virescens eggs.
The compounds were formulated using a solution containing 75% v/v water and 25% v/v DMSO. Different concentrations of formulated compounds were sprayed onto the insect diet at 10 μl, using a custom-built micro atomizer, at two replications.
After application, microtiter plates were incubated at about 28±1C and about 80±5% relative humidity for 5 days. Egg and larval mortality were then visually assessed.

[4] = system: Diamond back moth (Plutella xylostella); test: Example B.8: Action on diamond back moth (Plutella xylostella), egg and larval mortality on insect diet in microtiter plates; conditions: for mortality at 800 ppm: Plutella xylostella, 120 h, egg and larval mortality after 5 days, read-out: mortality in comparison with untreated controls; for egg and larval mortality: comparative experiment vs prior art compounds
Protocol: For evaluating control of diamond back moth (Plutella xylostella) the test unit consisted of 96-well-microtiter plates containing an insect diet and 15-25 P. xylostella eggs. The compounds or mixtures were formulated using a solution containing 75% water and 25% DMSO. Different concentrations of formulated compounds or mixtures were sprayed onto the insect diet at 5 μl, using a custom-built micro atomizer, at two replications. For experimental mixtures in these tests identical volumes of both mixing partners at the desired concentrations respectively, were mixed together. After application, microtiter plates were incubated at 28±1° C., 80±5% RH for 5 days. Egg and larval mortality was then visually assessed.

[5] = system: Orchid thrips (Dichromothrips corbetti); test: Example B.2: Action on orchid thrips (Dichromothrips corbetti), floral-immersion technique; conditions: 72 hours after treatment, read-out: mortality in comparison with untreated controls
Protocol: Dichromothrips corbetti adults used for bioassay were obtained from a colony maintained continuously under laboratory conditions. For testing purposes, the test compound is diluted in a 1:1 mixture of acetone:water (vol:vol), plus Kinetic® HV at a rate of 0.01% v/v.
Thrips potency of each compound was evaluated by using a floral-immersion technique. All petals of individual, intact orchid flowers were dipped into treatment solution and allowed to dryin Petri dishes. Treated petals were placed into individual re-sealable plastic along with about 20 adult thrips. All test arenas were held under continuous light and a temperature of about 28° C. for duration of the assay. After 3 days, the numbers of live thrips were counted on each petal. The percent mortality was recorded 72 hours after treatment.

[6] = system: Diamond back moth (Plutella xylostella); test: Example B.6: Action on diamond back moth (Plutella xylostella), cabbage leaf dip, 3rd instar larvae; conditions: foliar, 72 hours after treatment, read-out: mortality in comparison with untreated controls
Protocol: The active compound is dissolved at the desired concentration in a mixture of 1:1 (v/v) distilled water: acetone. Surfactant (Kinetic® HV) is added at a rate of 0.01% (v/v). The test solution is prepared at the day of use.
Leaves of cabbage were dipped in test solution and air-dried. Treated leaves were placed in petri dishes lined with moist filter paper and inoculated with ten 3rd instar larvae. Mortality was recorded 72 hours after treatment. Feeding damages were also recorded using a scale of 0-100%.

[7] = system: Southern armyworm (Spodoptera eridania), 2nd instar larvae; test: Example B.7: Action on southern armyworm (Spodoptera eridania), 2nd instar larvae on sprayed lima bean plants; conditions: 96 h, 4 days after treatment, read-out: mortality in comparison with untreated controls
Protocol: The active compounds were formulated by a Tecan liquid handler in 100% cyclohexanone as a 10,000-ppm solution supplied in tubes. The 10,000-ppm solution was serially diluted in 100% cyclohexanone to make interim solutions. These served as stock solutions for which final dilutions were made by the Tecan in 50% acetone:50% water (v/v) into 10 or 20 ml glass vials. A nonionic surfactant (Kinetic®) was included in the solution at a volume of 0.01% (v/v). The vials were then inserted into an automated electrostatic sprayer equipped with an atomizing nozzle for application to plants/insects.
Lima bean plants (variety Sieva) were grown 2 plants to a pot and selected for treatment at the 1st true leaf stage. Test solutions were sprayed onto the foliage by an automated electrostatic plant sprayer equipped with an atomizing spray nozzle. The plants were dried in the sprayer fume hood and then removed from the sprayer. Each pot was placed into perforated plastic bags with a zip closure. About 10 to 11 armyworm larvae were placed into the bag and the bags zipped closed. Test plants were maintained in a growth room at about 25° C. and about 20-40% relative humidity for 4 days, avoiding direct exposure to fluorescent light (24-hour photoperiod) to prevent trapping of heat inside the bags. Mortality and reduced feeding were assessed 4 days after treatment, compared to untreated control plants.

Row | SMILES | mortality at 800 ppm [1] [%] | mortality at 800 ppm [2] [%] | mortality at 800 ppm [3] [%] | mortality at 800 ppm [4] [%] | mortality at 300 ppm [5] [%] | mortality at 300 ppm [6] [%] | mortality at 300 ppm [7] [%] | egg and larval mortality ([4]; 25 ppm) | egg and larval mortality ([4]; 100 ppm)
1 | Cc1ccc(C(C)C)c(N2C(=O)CS/C2=N\C(=O)N(C)c2ccc(-c3nn(C)c(NC(=O)c4ccc(OC(F)(F)F)cc4)c3C)cc2)c1 [Example C-112, N-[5-[4-[[(Z)-[3-(2-isopropyl-5-methyl-phenyl)-4-oxo-thiazolidin-2-ylidene]carbamoyl]-methyl-amino]phenyl]-2,4-dimethyl-pyrazol-3-yl]-4-(trifluoromethoxy)benzamide] | ≥ 50 | ≥ 75 | ≥ 75 | ≥ 75 | – | – | – | – | –
2 | CC(=O)OCS/C(=N\C(=O)Nc1ccc(-c2nn(C)c(NC(=O)c3ccc(C(F)(F)F)cc3)c2C)cc1)Nc1cc(C)ccc1C(C)C [Example C-2, [(Z)-N′-[[4-[1,4-dimethyl-5-[[4-(trifluoromethyl)benzoyl]amino]pyrazol-3-yl]phenyl]carbamoyl]-N-(2-isopropyl-5-methyl-phenyl)carbamimidoyl]sulfanylmethyl acetate] | ≥ 50 | ≥ 75 | ≥ 75 | – | ≥ 75 | ≥ 75 | ≥ 75 | – | –
3 | Cc1ccc(C(C)C)c(N2C(=O)CS/C2=N\C(=O)Nc2ccc(-c3nn(C)c(NC(=O)c4ccc(OC(F)(F)F)cc4)c3C#N)cc2)c1 [Example C-7, N-[4-cyano-5-[4-[[(Z)-[3-(2-isopropyl-5-methyl-phenyl)-4-oxo-thiazolidin-2-ylidene]carbamoyl]amino]phenyl]-2-methyl-pyrazol-3-yl]-4-(trifluoromethoxy)benzamide] | ≥ 50 | ≥ 75 | ≥ 75 | – | ≥ 75 | ≥ 75 | ≥ 75 | – | –
4 | CC(C)c1ccccc1N1C(=O)CS/C1=N\C(=O)Nc1ccc(-c2nc(NC(=O)c3ccc(OC(F)(F)F)cc3)n(C)n2)cc1 [Example C-119] | – | ≥ 75 | – | ≥ 75 | – | – | ≥ 75 | 75 | –
5 | Cc1ccc(C(C)C)c(N2C(=O)CS/C2=N\C(=O)Nc2ccc(-c3nc(NC(=O)c4ccc(OC(F)(F)F)cc4)n(C)n3)cc2)c1 [Example C-5, N-[5-[4-[[(Z)-[3-(2-isopropyl-5-methyl-phenyl)-4-oxo-thiazolidin-2-ylidene]carbamoyl]amino]phenyl]-2-methyl-1,2,4-triazol-3-yl]-4-(trifluoromethoxy)benzamide] | – | ≥ 75 | ≥ 75 | – | ≥ 75 | ≥ 75 | ≥ 75 | – | –
6 | Cc1ccc(C(C)C)c(N2C(=O)CS/C2=N\C(=O)Nc2ccc(-c3nn(C)c(N(C)C(=O)c4ccc(C(F)(F)F)cc4)c3C)cc2)c1 [Example C-4, N-[5-[4-[[(Z)-[3-(2-isopropyl-5-methyl-phenyl)-4-oxo-thiazolidin-2-ylidene]carbamoyl]amino]phenyl]-2,4-dimethyl-pyrazol-3-yl]-N-methyl-4-(trifluoromethyl)benzamide] | ≥ 50 | ≥ 75 | ≥ 75 | – | ≥ 75 | ≥ 75 | ≥ 75 | – | –
7 | CC(C)c1ccccc1N1C(=O)CS/C1=N\C(=O)Nc1ccc(-c2nc(Nc3cccc(OC(F)(F)F)c3)n(C)n2)cc1 [EP3974414 I-006, reference compound] | – | – | – | – | – | – | – | 38 | 0
8 | Cc1ccc(C(C)C)c(N2C(=O)CS/C2=N\C(=O)Nc2ccc(-c3nn(C)c(NC(=O)c4ccc(C(F)(F)F)cc4)c3C)cc2)c1 [Example C-1, N-[5-[4-[[(Z)-[3-(2-isopropyl-5-methyl-phenyl)-4-oxo-thiazolidin-2-ylidene]carbamoyl]amino]phenyl]-2,4-dimethyl-pyrazol-3-yl]-4-(trifluoromethyl)benzamide] | ≥ 50 | ≥ 75 | ≥ 75 | – | ≥ 75 | ≥ 75 | ≥ 75 | – | –
9 | CC(C)c1ccccc1N1C(=O)CS/C1=N\C(=O)Nc1ccc(-c2nc(NC(=O)c3cccc(OC(F)(F)F)c3)n(C)n2)cc1 [Example C-126] | ≥ 50 | ≥ 75 | ≥ 75 | ≥ 75 | – | – | ≥ 75 | 75 | 100
10 | CC(C)c1ccccc1N1C(=O)CS/C1=N\C(=O)Nc1ccc(-c2nc(Nc3ccc(OC(F)(F)F)cc3)n(C)n2)cc1 [EP3974414 I-001, reference compound] | – | – | – | – | – | – | – | 0 | –
11 | Cc1ccc(C(C)C)c(N2C(=O)CS/C2=N\C(=O)Nc2ccc(-c3nn(C)c(NC(=O)c4ccc(OC(F)(F)F)cc4)c3C)cc2Cl)c1 [Example C-8, N-[5-[3-chloro-4-[[(Z)-[3-(2-isopropyl-5-methyl-phenyl)-4-oxo-thiazolidin-2-ylidene]carbamoyl]amino]phenyl]-2,4-dimethyl-pyrazol-3-yl]-4-(trifluoromethoxy)benzamide] | ≥ 50 | ≥ 75 | ≥ 75 | – | ≥ 75 | ≥ 75 | ≥ 75 | – | –
12 | Cc1ccc(C(C)C)c(NC(=S)NC(=O)Nc2ccc(-c3nn(C)c(NC(=O)c4ccc(C(F)(F)F)cc4)c3C)cc2)c1 [Example C-3, N-[5-[4-[(2-isopropyl-5-methyl-phenyl)carbamothioylcarbamoylamino]phenyl]-2,4-dimethyl-pyrazol-3-yl]-4-(trifluoromethyl)benzamide] | ≥ 50 | ≥ 75 | ≥ 75 | – | ≥ 75 | ≥ 75 | ≥ 75 | – | –
